Test results from US9186406B2, “Compositions containing nucleosides and manganese and their uses” (The Henry M. Jackson Foundation for Advancement of Military …, priority 2007, dated 2015).

What was measured:
restriction enzyme BamH1 = molecular target: T1, restriction enzyme BamH1 (Bacillus amyloliquefaciens, UniProt P23940); assay type: biochemical; conditions: exposure to 17,500 Gy; 25 mM potassium phosphate buffer; 3 mM adenosine, 1 mM MnCl2
T1 sequence (P23940 1-213): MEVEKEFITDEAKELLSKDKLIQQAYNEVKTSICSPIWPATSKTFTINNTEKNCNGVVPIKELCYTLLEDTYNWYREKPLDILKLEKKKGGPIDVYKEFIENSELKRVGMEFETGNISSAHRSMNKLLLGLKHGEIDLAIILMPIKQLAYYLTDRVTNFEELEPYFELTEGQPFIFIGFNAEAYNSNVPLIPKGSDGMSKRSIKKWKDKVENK
Procedure: Post-irradiation functionality of restriction enzyme BamH1 after indicated treatment and incubation with 1-DNA.

[1] = tested on: Purified E. coli proteins; test: protein carbonyl assay of purified E. coli proteins irradiated in vitro; assay type: biochemical; conditions: for prevention of ionizing radiation (IR)-induced protein oxidation (carbonylation) in vitro: purified E. coli proteins incubated with the agent during irradiation, Carbonyl Western blot
Procedure: Purified E. coli proteins were incubated in PP-, EC-, or DR-ultra-filtrated extract during irradiation, and subjected to a protein carbonyl assay.
Purified E. coli proteins were incubated with the indicated agents.

hFOB cells = test: apoptosis assay (Annexin V / PI flow cytometry) of hFOB cells 6 days after IR; assay type: cell-based, Human; conditions: for radioprotection of a mammalian cell line: agent alone; for Annexin V + / Annexin-V + PI / Live Cells / PI: hFOB cells 6 days after IR, adenosine 10 mM, MnCl2 0.25 mM, added 3 h before IR
Procedure: Apoptosis of Human Fetal Osteoblastic 1.19 cell line from ATCC (hFOB) was determined by death and apoptotic markers (Annexin V and propidium iodide PI) using a flow cytometry assay. In brief, hFOB cells were cultured in DMEM-F12 with 10% fetal bovine serum, 2.5 mM L-glutamine and 1% antibiotic to full confluency followed by treatment for experimental groups with adenosine (10 mM) or MnCl2 (0.25 mM) or adenosine and MnCl2 for 6 days period starting 3 h before IR. Apoptotic cell death was measured by flow cytometry with Annexin V and PI staining 6 days after IR. hFOB cells also were plated (1×10^3/well, 6-well plate) for clonogenic survival assay after IR. Colonies were counted 10 days later.
For the assays, adenosine+/−0.25 mM Mn(II) was added 3 hours prior to irradiation. Cells were assayed 6 days after irradiation by flow cytometry. Annexin-V conjugates allow for the identification of cell surface changes that occur early during the apoptotic process using flow cytometry. Early in the apoptotic process, phosphatidylserine becomes exposed on the cell surface. Propidium Iodide (PI) in un-fixed cells discriminates between apoptosis and necrosis on the basis of dye exclusion. While necrotic cells lose membrane integrity early on in their death throws, apoptotic cells may have compromised membranes.

Row | SMILES | BamH1 functionality after irradiation (restriction enzyme BamH1) | protection of proteins from oxidation during irradiation ([1]; potassium phosphate buffer (PPB/25 mM)+15 mM adenosine, compared to buffer alone) | prevention of ionizing radiation (IR)-induced protein oxidation (carbonylation) in vitro [1] | radioprotection of a mammalian cell line (hFOB cells) | Annexin V + (hFOB cells; 0 Gy) [%] | Annexin-V + PI (hFOB cells; 0 Gy) [%] | Live Cells (hFOB cells; 0 Gy) [%] | PI (hFOB cells; 0 Gy) [%] | Annexin V + (hFOB cells; 8 Gy) [%] | Annexin-V + PI (hFOB cells; 8 Gy) [%] | Live Cells (hFOB cells; 8 Gy) [%] | PI (hFOB cells; 8 Gy) [%]
1 | Nc1ncnc2c1ncn2[C@@H]1O[C@H](CO)[C@@H](O)[C@H]1O [Adenosine, adenosine] | not | highly protected from oxidation | prevent ionizing radiation (IR)-induced protein oxidation in vitro | radioprotective | 2 | 1 | 85 | 13 | 3 | 2 | 85 | 10
2 | [Cl][Mn][Cl] [Mn, MnCl2] | not |  |  | radioprotective | 0 | 0 | 86 | 14 | 21 | 2 | 70 | 7
3 | O=c1ccn([C@@H]2O[C@H](CO)[C@@H](O)[C@H]2O)c(=O)[nH]1 [uridine] |  |  | prevent ionizing radiation (IR)-induced protein oxidation in vitro |  |  |  |  |  |  |  |  | 
